Data as given in patent publication US9353084B2, “2-amino 3,5,5-trifluoro-3,4,5,6-tetrahydropyridines as BACE1 inhibitors for treatment of Alzheimer's disease” (H. Lundbeck A/S, priority 2014, dated 2016).
Structures can show the parent of a compound that is named as a salt.

Biological target: human BACE1 (Homo sapiens (Human), UniProt P56817)
Test: BACE1 binding assay (SPA-based, radioligand displacement)
Conditions: pH 4.5, Ki calculated from IC50
Procedure: The binding assay was performed as SPA-based assay using a biotinylated form of human BACE1 recombinantly expressed and subsequently purified from Freestyle HEK293 cells. The binding assay was run in a 50 mM sodium acetate buffer, pH 4.5 containing 50 mM NaCl and 0.03% Tween-20 in white clear bottom 384 plates (Corning #3653). 10 nM (final concentration) radioligand ([^3H]—N-((1S,2R)-1-benzyl-3-cyclopropylamino-2-hydroxy-propyl)-5-(methanesulfonyl-methyl-amino)-N—((R)-1-phenyl-ethyl)-isophthalamide) (TRQ11569 purchased from GE Healthcare) was mixed with test compound at a given concentration, 6 nM (final concentration) human BACE1 and 25 μg Streptavidin coated PVT core SPA beads (RPNQ0007, GE Healthcare Life Sciences) in a total volume of 40 μl. Several concentrations of each test compound were tested in the assay for IC50 determination. The plates were incubated for one hour at room temperature and counted in a Wallac Trilux counter. Total and non-specific binding were determined using buffer and 1 μM (final concentration) of the high affinity BACE1 reference inhibitor (S)-6-[3-chloro-5-(5-prop-1-ynyl-pyridin-3-yl)-thiophen-2-yl]-2-imino-3,6-dimethyl-tetrahydro-pyrimidin-4-one, respectively. For each test compound, a IC50 value (the concentration mediating 50% inhibition of the specific binding of the radioligand) was determined from concentration-response curve and used to calculate the Ki from the equation Ki=IC50/(1+L/Kd), where L and Kd are the final concentration of the radioligand used in the assay and the dissociation constant of the radioligand, respectively. The Kd of the radioligand was determined from saturation binding experiments.

human BACE1, sequence (P56817 46-501): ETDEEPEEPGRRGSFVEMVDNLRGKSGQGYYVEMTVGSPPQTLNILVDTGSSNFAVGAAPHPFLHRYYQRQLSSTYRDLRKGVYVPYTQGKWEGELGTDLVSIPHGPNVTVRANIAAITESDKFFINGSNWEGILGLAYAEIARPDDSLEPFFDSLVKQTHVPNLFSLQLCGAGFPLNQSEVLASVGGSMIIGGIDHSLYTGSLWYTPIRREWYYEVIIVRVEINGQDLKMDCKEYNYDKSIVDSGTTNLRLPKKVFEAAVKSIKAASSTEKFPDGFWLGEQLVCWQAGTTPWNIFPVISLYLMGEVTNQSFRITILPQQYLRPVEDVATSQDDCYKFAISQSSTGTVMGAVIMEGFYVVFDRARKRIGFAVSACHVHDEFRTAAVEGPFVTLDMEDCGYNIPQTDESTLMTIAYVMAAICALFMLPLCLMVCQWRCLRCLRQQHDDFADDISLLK

| Ki | Structure (SMILES) |
| --- | --- |
| 4800 nM | Cn1ccc(C(=O)Nc2ccc(F)c([C@@]3(C)N=C(N)[C@](C)(F)CC3(F)F)c2)n1 [Compound 39, N-(3-((2R,5R)-6-amino-3,3,5-trifluoro-2,5-dimethyl-2,3,4,5-tetrahydropyridin-2-yl)-4-fluorophenyl)-1-methyl-1H-pyrazole-3-carboxamide] |
| 520 nM | Cc1ccc(C(=O)Nc2ccc(F)c([C@@]3(C)N=C(N)[C@](C)(F)CC3(F)F)c2)o1 [Compound 41, N-(3-((2R,5R)-6-amino-3,3,5-trifluoro-2,5-dimethyl-2,3,4,5-tetrahydropyridin-2-yl)-4-fluorophenyl)-5-methylfuran-2-carboxamide] |
| 1500 nM | Cc1ncc(C(=O)Nc2ccc(F)c([C@@]3(C)N=C(N)[C@](C)(F)CC3(F)F)c2)o1 [Compound 42, N-(3-((2R,5R)-6-amino-3,3,5-trifluoro-2,5-dimethyl-2,3,4,5-tetrahydropyridin-2-yl)-4-fluorophenyl)-2-methyloxazole-5-carboxamide trifluoroacetic acid salt] |
| 91 nM | [2H]C([2H])([2H])Oc1ccc(C(=O)Nc2ccc(F)c([C@@]3(C)N=C(N)[C@](C)(F)CC3(F)F)c2)nc1 [Compound 43, N-(3-((2R,5R)-6-amino-3,3,5-trifluoro-2,5-dimethyl-2,3,4,5-tetrahydropyridin-2-yl)-4-fluorophenyl)-5-(methoxy-d3)picolinamide] |
| 14 nM | C[C@]1(F)CC(F)(F)[C@@](C)(c2cc(NC(=O)c3ccc(OC(F)F)cn3)ccc2F)N=C1N [Compound 45, N-(3-((2R,5S)-6-amino-3,3,5-trifluoro-2,5-dimethyl-2,3,4,5-tetrahydropyridin-2-yl)-4-fluorophenyl)-5-(difluoromethoxy)picolinamide] |
| 14 nM | COc1cnc(C(=O)Nc2ccc(F)c([C@@]3(C)N=C(N)[C@@](C)(F)CC3(F)F)c2)c(F)c1 [Compound 46, N-(3-((2R,5S)-6-amino-3,3,5-trifluoro-2,5-dimethyl-2,3,4,5-tetrahydropyridin-2-yl)-4-fluorophenyl)-3-fluoro-5-methoxypicolinamide] |

More lines, now with the values behind:

| Structure (SMILES) | Ki |
| --- | --- |
| Cc1nc(C(=O)Nc2ccc(F)c([C@@]3(C)N=C(N)[C@](C)(F)CC3(F)F)c2)no1 [Compound 35, N-(3-((2R,5R)-6-amino-3,3,5-trifluoro-2,5-dimethyl-2,3,4,5-tetrahydropyridin-2-yl)-4-fluorophenyl)-5-methyl-1,2,4-oxadiazole-3-carboxamide] | 680 nM |
| C[C@@]1(F)CC(F)(F)[C@@](C)(c2cc(NC(=O)c3nccs3)ccc2F)N=C1N [Compound 36, N-(3-((2R,5R)-6-amino-3,3,5-trifluoro-2,5-dimethyl-2,3,4,5-tetrahydropyridin-2-yl)-4-fluorophenyl)thiazole-2-carboxamide] | 390 nM |
| Cn1cc(Br)nc1C(=O)Nc1ccc(F)c([C@@]2(C)N=C(N)[C@](C)(F)CC2(F)F)c1 [Compound 37, N-(3-((2R,5R)-6-amino-3,3,5-trifluoro-2,5-dimethyl-2,3,4,5-tetrahydropyridin-2-yl)-4-fluorophenyl)-4-bromo-1-methyl-1H-imidazole-2-carboxamide] | 420 nM |
| Cc1cn(C)c(C(=O)Nc2ccc(F)c([C@@]3(C)N=C(N)[C@](C)(F)CC3(F)F)c2)n1 [Compound 38, N-(3-((2R,5R)-6-amino-3,3,5-trifluoro-2,5-dimethyl-2,3,4,5-tetrahydropyridin-2-yl)-4-fluorophenyl)-1,4-dimethyl-1H-imidazole-2-carboxamide] | 1000 nM |
| Cc1cc(C(=O)Nc2ccc(F)c([C@@]3(C)N=C(N)[C@](C)(F)CC3(F)F)c2)on1 [Compound 40, N-(3-((2R,5R)-6-amino-3,3,5-trifluoro-2,5-dimethyl-2,3,4,5-tetrahydropyridin-2-yl)-4-fluorophenyl)-3-methylisoxazole-5-carboxamide] | 8200 nM |
| C[C@@]1(F)CC(F)(F)[C@@](C)(c2cc(NC(=O)c3ccc(Cl)cc3)ccc2F)N=C1N [Compound 44, N-(3-((2R,5R)-6-amino-3,3,5-trifluoro-2,5-dimethyl-2,3,4,5-tetrahydropyridin-2-yl)-4-fluorophenyl)-4-chlorobenzamide] | 740 nM |
